Here are results for 17 molecules from PubChem BioAssay AID248 (DTP/NCI, 2004).

SMILES strings stand for the structures. Several values for one entry are separate records, joined by “and”; a condition that tells them apart may be missing. Equal values may be shown once. Toxic doses and inconclusive results are not listed.

The subject of the experiment is L1210 leukemia ip in BDF1 mice, survival T/C. Briefly: NCI In Vivo Anticancer Drug Screen. Data for tumor model L1210 Leukemia (intraperitoneal) in B6D2F1 (BDF1) mice. To be noted: endpoint: mean survival time, higher = longer survival. Summed up:
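Transplantable tumor model; survival measured in treated vs vehicle control mice. Value = treated/control.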

The mark [1] stands for this setting: dose: 20.0 mg/kg/injection, schedule: Q01DX009 (ip), vehicle: saline with Tween-80.
The mark [2] stands for this setting: dose: 100.0 mg/kg/injection, schedule: Q01DX009 (ip), vehicle: Klucel (hydroxypropylcellulose) (HPC).
Where [3] appears, read: dose: 200.0 mg/kg/injection, schedule: Q01DX009 (ip), vehicle: Klucel (hydroxypropylcellulose) (HPC).
[4] abbreviates: dose: 400.0 mg/kg/injection, schedule: Q01DX009 (ip), vehicle: Klucel (hydroxypropylcellulose) (HPC).

Regarding `Cc1noc2c1ncc[n+]2[O-]`, the T/C (dose: 5.0 mg/kg/injection, schedule: Q01DX009 (ip), vehicle: saline with Tween-80) is 89 % of control; the T/C (dose: 10.0 mg/kg/injection, schedule: Q01DX009 (ip), vehicle: saline with Tween-80) is 91 % of control; the T/C under setting [1] was 86 % of control.

In the case of `CN(C)CCCOS(C)(=O)=O`, the T/C is, setting by setting: (dose: 100.0 mg/kg/injection, schedule: Q04DX002 (ip), vehicle: saline with Tween-80) 105 % of control; (dose: 200.0 mg/kg/injection, schedule: Q04DX002 (ip), vehicle: saline with Tween-80) 99 % of control.

Regarding `Cc1cccc(NC(=O)C(Cl)(Cl)Cl)c1`, the T/C (dose: 100.0 mg/kg/injection, schedule: Q04DX002 (ip), vehicle: Klucel (hydroxypropylcellulose) (HPC)) was 109 % of control; the T/C (dose: 200.0 mg/kg/injection, schedule: Q04DX002 (ip), vehicle: Klucel (hydroxypropylcellulose) (HPC)) is 98 % of control; the T/C (dose: 400.0 mg/kg/injection, schedule: Q04DX002 (ip), vehicle: Klucel (hydroxypropylcellulose) (HPC)) was 98 % of control.

Consider `COC(=O)Cc1oc(=O)n(-c2ccccc2)c(=O)c1C(=O)OC`, for which the T/C (dose: 12.5 mg/kg/injection, schedule: Q04DX002 (ip), vehicle: gum acacia) is 94 % of control; the T/C (dose: 25.0 mg/kg/injection, schedule: Q04DX002 (ip), vehicle: gum acacia) was 116 % of control; the T/C (dose: 50.0 mg/kg/injection, schedule: Q04DX002 (ip), vehicle: gum acacia) is 108 % of control.

On to `NC(CCl)=NC1CC1`, for which the T/C runs as follows: (dose: 25.0 mg/kg/injection, schedule: Q04DX002 (ip), vehicle: saline) 106 % of control; (dose: 50.0 mg/kg/injection, schedule: Q04DX002 (ip), vehicle: saline) 106 % of control; (dose: 100.0 mg/kg/injection, schedule: Q04DX002 (ip), vehicle: saline) 110 % of control.

Regarding `CCSC(=S)n1c2ccccc2c2ccccc21`, the T/C reads like this: (dose: 100.0 mg/kg/injection, schedule: Q01DX001 (ip), vehicle: Klucel (hydroxypropylcellulose) (HPC)) 98 % of control; under setting [2], 101 % of control; (dose: 200.0 mg/kg/injection, schedule: Q01DX001 (ip), vehicle: Klucel (hydroxypropylcellulose) (HPC)) 101 % of control; under setting [3], 96 % of control; (dose: 400.0 mg/kg/injection, schedule: Q01DX001 (ip), vehicle: Klucel (hydroxypropylcellulose) (HPC)) 92 % of control; under setting [4], 101 % of control.

As for `C#CCC#Cc1ccccc1`, the T/C (dose: 100.0 mg/kg/injection, schedule: Q01DX009 (ip), vehicle: saline with Tween-80) was 89 % of control and the T/C (dose: 200.0 mg/kg/injection, schedule: Q01DX009 (ip), vehicle: saline with Tween-80) is 92 % of control.

In the case of `CC(=O)Nc1ccc(/C=N/Nc2c3ccccc3nc3ccccc23)cc1`, the T/C (dose: 100.0 mg/kg/injection, schedule: Q01DX001 (ip), vehicle: saline) is 108 % of control.

Regarding `CC(=O)Nc1ccc(C)c([N+](=O)[O-])c1`, the T/C reads like this: (dose: 100.0 mg/kg/injection, schedule: Q01DX009 (ip), vehicle: saline) 100 % of control; (dose: 100.0 mg/kg/injection, schedule: Q04DX003 (ip), vehicle: saline) 98 % of control; (dose: 200.0 mg/kg/injection, schedule: Q01DX009 (ip), vehicle: saline) 93 % of control; (dose: 200.0 mg/kg/injection, schedule: Q04DX003 (ip), vehicle: saline) 93 % of control; (dose: 400.0 mg/kg/injection, schedule: Q01DX009 (ip), vehicle: saline) 97 % of control; (dose: 400.0 mg/kg/injection, schedule: Q04DX003 (ip), vehicle: saline) 102 % of control.

For `O=N[O-].O=N[O-].O=N[O-].O=N[O-].O=N[O-].O=N[O-].[Co+3].[Co].[NH2-].[NH2-].[NH2-].[NH2-].[NH2-].[NH2-]`, the T/C is, setting by setting: (dose: 25.0 mg/kg/injection, schedule: Q04DX002 (ip), vehicle: saline with Tween-80) 102 % of control; (dose: 50.0 mg/kg/injection, schedule: Q04DX002 (ip), vehicle: saline with Tween-80) 115 % of control.

For the molecule `CCCCN(C)/N=N\c1[nH]ncc1C(N)=O`, the T/C (dose: 8.5 mg/kg/injection, schedule: Q01DX009 (ip), vehicle: saline with Tween-80) was 119 % of control; the T/C (dose: 13.0 mg/kg/injection, schedule: Q01DX009 (ip), vehicle: saline with Tween-80) was 104 % of control; the T/C (dose: 16.25 mg/kg/injection, schedule: Q01DX009 (ip), vehicle: saline with Tween-80) was 115 % of control; the T/C under setting [1] was 115 % of control; the T/C (dose: 30.5 mg/kg/injection, schedule: Q04DX003 (ip), vehicle: saline with Tween-80) was 100 % of control; the T/C (dose: 44.0 mg/kg/injection, schedule: Q01DX009 (ip), vehicle: other) was 165 % of control. For the same molecule, the T/C is, setting by setting: (dose: 61.0 mg/kg/injection, schedule: Q04DX003 (ip), vehicle: saline with Tween-80) 108 % of control; (dose: 65.0 mg/kg/injection, schedule: Q01DX009 (ip), vehicle: saline with Tween-80) 157 % of control; (dose: 66.0 mg/kg/injection, schedule: Q01DX009 (ip), vehicle: other) 184 % of control; (dose: 77.25 mg/kg/injection, schedule: Q01DX001 (ip), vehicle: saline with Tween-80) 106 % of control; (dose: 122.0 mg/kg/injection, schedule: Q04DX003 (ip), vehicle: saline with Tween-80) 119 % of control; (dose: 150.0 mg/kg/injection, schedule: Q01DX009 (ip), vehicle: other) 114 % of control. Moreover, the T/C (dose: 154.5 mg/kg/injection, schedule: Q01DX001 (ip), vehicle: saline with Tween-80) was 117 % of control and the T/C (dose: 309.0 mg/kg/injection, schedule: Q01DX001 (ip), vehicle: saline with Tween-80) is 114 % of control.

With `CCC(=O)OCC1CCCO1` (stereo not drawn), the T/C under setting [2] was 103 % of control, the T/C under setting [3] was 103 % of control and the T/C under setting [4] was 101 % of control.

With `ClCCCNCCCCl`, the T/C runs as follows: (dose: 75.0 mg/kg/injection, schedule: Q01DX001 (ip), vehicle: saline) 101 % of control; (dose: 150.0 mg/kg/injection, schedule: Q01DX001 (ip), vehicle: saline) 97 % of control.

On to `CC1CN1CCCNC(=O)C(=O)NCCCN1CC1C` (stereo not drawn), for which the T/C was 110 % of control (dose: 12.5 mg/kg/injection, schedule: Q04DX003 (ip), vehicle: saline) and 168 % of control (dose: 50.0 mg/kg/injection, schedule: Q04DX003 (ip), vehicle: saline).

As to `Nc1ncnc(Nc2ccccc2[N+](=O)[O-])c1[N+](=O)[O-]`, the T/C runs as follows: (dose: 12.5 mg/kg/injection, schedule: Q01DX001 (ip), vehicle: Klucel (hydroxypropylcellulose) (HPC)) 97 % of control; (dose: 25.0 mg/kg/injection, schedule: Q01DX001 (ip), vehicle: Klucel (hydroxypropylcellulose) (HPC)) 87 % of control; (dose: 50.0 mg/kg/injection, schedule: Q01DX001 (ip), vehicle: Klucel (hydroxypropylcellulose) (HPC)) 87 % of control.

`CCNC(C)(C)C(Cl)c1ccc(Cl)s1` (stereo not drawn): the T/C is 90 % of control (dose: 25.0 mg/kg/injection, schedule: Q01DX009 (ip), vehicle: Klucel (hydroxypropylcellulose) (HPC)); 101 % of control (dose: 25.0 mg/kg/injection, schedule: Q04DX003 (ip), vehicle: Klucel (hydroxypropylcellulose) (HPC)); 89 % of control (dose: 50.0 mg/kg/injection, schedule: Q01DX009 (ip), vehicle: Klucel (hydroxypropylcellulose) (HPC)); 97 % of control (dose: 50.0 mg/kg/injection, schedule: Q04DX003 (ip), vehicle: Klucel (hydroxypropylcellulose) (HPC)); 90 % of control under setting [2]; 101 % of control and 102 % of control (dose: 100.0 mg/kg/injection, schedule: Q04DX003 (ip), vehicle: Klucel (hydroxypropylcellulose) (HPC)).

With `C1CN=C2CCCN2C1`, the T/C reads like this: (dose: 18.75 mg/kg/injection, schedule: Q01DX009 (ip), vehicle: saline) 100 % of control; (dose: 37.5 mg/kg/injection, schedule: Q01DX009 (ip), vehicle: saline) 97 % of control.
